Like-named read-outs stand apart in the source and are kept apart here.
Legend:
[1] = test system: RPE-Neo or RPE-MYC or RPE-MYC expressing an EGFP-Histone 2B fusion protein; assay: Phenotypic screening assay: arrest in mitosis, change in DNA content (polyploidy), cell death; type: cell-based; conditions: 20 nM to 20 μM, 24, 48 or 72 hours
Procedure, shortened: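 Compound exposure from 20 nM to 20 μM in RPE lines (Neo, MYC, or MYC with EGFP-histone H2B), seeded 18-24 h earlier; imaging at 24, 48 or 72 h read mitotic arrest or altered DNA content, with MTT for proliferation. Results reported as A–D range categories.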

RPE-Neo or RPE-MYC cells = assay: MTT assay of cellular proliferation (proliferative arrest); type: cell-based; conditions: read-out: Min. Effective conc. for Proliferative arrest (>50%)
[2] = test system: human cancer cell line NCI-H460; assay: Tumor growth inhibition, NCI-H460 tumors in BAL B/c nude mice; type: in vivo, human tumor cell line in BAL B/c nude mice; conditions: oral, 15 mg/kg, 4 days-on, 3 days-off, 20 days, 30% PEG300
Method: Six- to seven-week-old female BAL B/c nude mice were used in the human cancer cell line NCI-H460, which was derived from a lung cancer patient. Six- to seven-week-old female BAL B/c mice were used in the mouse […] cell line CT26 allograft models. 100 μL cell suspensions containing one million cells with […] (Corning, Cat. No. 354254) were implanted subcutaneously into the right flank of mice. Mice were monitored daily for well-being and weighed twice weekly. Caliper measurements of tumor sizes began when tumors became visible. Tumor volume (TV) was calculated by measuring two perpendicular diameters using the following formula: (L×W2)/2 in which L and W refer to the length and width of a tumor, respectively. When tumors reached an average size of 100 mm3, mice were first ranked according to tumor size and divided into “n” cohorts with X mice in each cohort. Each cohort was then sorted into 1 to X groups according to the random numbers size order generated by the RAND 0)function in Excel. In this way, the mice were randomized into X groups (n=4-6). Then the mice were orally administrated with vehicle (30% PEG 300) or indicated compounds at a dose volume of 5 mL/kg in a double-blinded manner. Oral administration was chosen because this is the intended route of use in the clinic. In all cases, no tumor measurement data or animals were excluded from the data analysis. Percentage of tumor growth inhibition (TGI) was calculated using the following formula: % TGI=average 100×[1−(final TV−initial TV of treatment group)/(final TV−initial TV of control group)]. As set forth in table 3 below, an values of greater than or equal to 35% and less than or equal to 45% […] is marked “C”; a value greater than 45% and less than or equal to 55% is marked “B”; a value greater than 55% and less than or equal to 70% is marked “A”; and […]

[3] = read-out: Min. Effective conc. for Along with Cell Death
[4] = ≥5%, read-out: Min. Effective conc. for Mitotic Arrest (≥5%)
[5] = ≥5%, read-out: Min. Effective conc. for Polyploidy (≥5%)

| SMILES | minimal effective concentration [1, 3] | minimal effective concentration [1, 4] | minimal effective concentration [1, 5] | minimal effective concentration (RPE-Neo or RPE-MYC cells) | TGI % [2] |
| --- | --- | --- | --- | --- | --- |
| COc1ccc(CN2C(=O)CC(c3ncc(C)o3)=Cc3ccc(-c4cnn(CCO)c4)cc32)cc1 [Compound 36, 8-(1-(2-hydroxyethyl)-1H-pyrazol-4-yl)-1-(4-methoxybenzyl)-4-(5-methyloxazol-2-yl)-1,3-dihydro-2H-benzo[b]azepin-2-one] | 0.001 to 1 µM | 0.001 to 1 µM | 0.001 to 1 µM | 0.001 to 1 µM | A (greater than 55% and less than or equal to 70%) |
| COc1ccc(CN2C(=O)CC(c3ncc(C)o3)=Cc3ccc(-c4cnn(C5(CC#N)CN(S(=O)(=O)N(C)C)C5)c4)cc32)cc1 [Compound 91, 3-(Cyanomethyl)-3-(4-(1-(4-methoxybenzyl)-4-(5-methyloxazol-2-yl)-2-oxo-2,3-dihydro-1H-benzo[b]azepin-8-yl)-1H-pyrazol-1-yl)-N,N-dimethylazetidine-1-sulfonamide] | 0.001 to 1 µM | 0.001 to 1 µM | 0.001 to 1 µM | 0.001 to 1 µM | – |
| COc1ccc(CN2C(=O)CC(c3ncc(C)o3)=Cc3ccc(-c4cnn(C5(C(N)=O)CC5)c4)cc32)cc1 [Compound 92, 1-(4-(1-(4-Methoxybenzyl)-4-(5-methyloxazol-2-yl)-2-oxo-2,3-dihydro-1H-benzo[b]azepin-8-yl)-1H-pyrazol-1-yl)cyclopropane-1-carboxamide] | 0.001 to 1 µM | 0.001 to 1 µM | 0.001 to 1 µM | 0.001 to 1 µM | – |
| COc1ccc(CN2C(=O)CC(c3nnc(C)o3)=Cc3ccc(-c4cnn(CC(C)(C)O)c4)cc32)cc1 [Compound 93, 8-(1-(2-Hydroxy-2-methylpropyl)-1H-pyrazol-4-yl)-1-(4-methoxybenzyl)-4-(5-methyl-1,3,4-oxadiazol-2-yl)-1,3-dihydro-2H-benzo[b]azepin-2-one] | 0.001 to 1 µM | 0.001 to 1 µM | 0.001 to 1 µM | 0.001 to 1 µM | – |
| COc1ccc(CN2C(=O)CC(c3nc(C4CC4)no3)=Cc3ccc(-c4cnn(CC(C)(C)O)c4)cc32)cc1 [Compound 95, 4-(3-cyclopropyl-1,2,4-oxadiazol-5-yl)-8-(1-(2-hydroxy-2-methylpropyl)-1H-pyrazol-4-yl)-1-(4-methoxybenzyl)-1,3-dihydro-2H-benzo[b]azepin-2-one] | 0.001 to 1 µM | 0.001 to 1 µM | 0.001 to 1 µM | 0.001 to 1 µM | – |
| COc1ccc(CN2C(=O)CC(c3ccon3)=Cc3ccc(-c4cnn(CC(C)(C)O)c4)cc32)cc1 [Compound 97, 8-(1-(2-Hydroxy-2-methylpropyl)-1H-pyrazol-4-yl)-4-(isoxazol-3-yl)-1-(4-methoxybenzyl)-1,3-dihydro-2H-benzo[b]azepin-2-one] | 0.001 to 1 µM | 0.001 to 1 µM | 0.001 to 1 µM | 0.001 to 1 µM | – |
| COc1ccc(CN2C(=O)CC(c3nnco3)=Cc3ccc(-c4cnn(CC(C)(C)O)c4)cc32)cc1 [Compound 98, 8-(1-(2-Hydroxy-2-methylpropyl)-1H-pyrazol-4-yl)-1-(4-methoxybenzyl)-4-(1,3,4-oxadiazol-2-yl)-1,3-dihydro-2H-benzo[b]azepin-2-one] | 0.001 to 1 µM | 0.001 to 1 µM | 0.001 to 1 µM | 0.001 to 1 µM | – |
| COc1ccc(CN2C(=O)CC(c3nc(C)no3)=Cc3ccc(-c4cnn(CC(C)(C)O)c4)cc32)cc1 [Compound 99, 8-(1-(2-Hydroxy-2-methylpropyl)-1H-pyrazol-4-yl)-1-(4-methoxybenzyl)-4-(3-methyl-1,2,4-oxadiazol-5-yl)-1,3-dihydro-2H-benzo[b]azepin-2-one] | 0.001 to 1 µM | 0.001 to 1 µM | 0.001 to 1 µM | 0.001 to 1 µM | – |
| [2H]C([2H])([2H])Oc1ccc(CN2C(=O)CC(c3ncc(C)o3)=Cc3ccc(-c4cnn(CC(C)(C)O)c4)cc32)cc1 [Compound 100, 8-(1-(2-Hydroxy-2-methylpropyl)-1H-pyrazol-4-yl)-1-(4-(methoxy-d3)benzyl)-4-(5-methyloxazol-2-yl)-1,3-dihydro-2H-benzo[b]azepin-2-one] | 0.001 to 1 µM | 0.001 to 1 µM | 0.001 to 1 µM | 0.001 to 1 µM | – |
| Cc1cnc(C2=Cc3ccc(-c4cnn(CC(C)(C)O)c4)cc3N(Cc3ccc(C)c(F)c3)C(=O)C2)o1 [Compound 101, 1-(3-fluoro-4-methylbenzyl)-8-(1-(2-hydroxy-2-methylpropyl)-1H-pyrazol-4-yl)-4-(5-methyloxazol-2-yl)-1,3-dihydro-2H-benzo[b]azepin-2-one] | 0.001 to 1 µM | 0.001 to 1 µM | 0.001 to 1 µM | 0.001 to 1 µM | – |
| COc1ccc(CN2C(=O)CC(c3ncc(C)o3)=Cc3ccc(-c4cnn(CC(C)(C)O)c4)cc32)cc1F [Compound 102, 1-(3-fluoro-4-methoxybenzyl)-8-(1-(2-hydroxy-2-methylpropyl)-1H-pyrazol-4-yl)-4-(5-methyloxazol-2-yl)-1,3-dihydro-2H-benzo[b]azepin-2-one] | 0.001 to 1 µM | 0.001 to 1 µM | 0.001 to 1 µM | 0.001 to 1 µM | – |
| COc1ccc(CN2C(=O)CC(c3ncc(C)o3)=Cc3ccc(-c4cnn(CC(C)(C)O)c4)cc32)cn1 [Compound 103, 8-(1-(2-Hydroxy-2-methylpropyl)-1H-pyrazol-4-yl)-1-((6-methoxypyridin-3-yl)methyl)-4-(5-methyloxazol-2-yl)-1,3-dihydro-2H-benzo[b]azepin-2-one] | 0.001 to 1 µM | 0.001 to 1 µM | 0.001 to 1 µM | 0.001 to 1 µM | – |
| COc1ccc(C(=O)N2CCC(c3ncc(C)o3)=Cc3ccc(-c4cnn(CC(C)(C)O)c4)cc32)cc1 [Compound 104, (8-(1-(2-Hydroxy-2-methylpropyl)-1H-pyrazol-4-yl)-4-(5-methyloxazol-2-yl)-2,3-dihydro-1H-benzo[b]azepin-1-yl) (4-methoxyphenyl)methanone] | 0.001 to 1 µM | 0.001 to 1 µM | 0.001 to 1 µM | 0.001 to 1 µM | – |
| COc1ccc(C(=O)N2CCC(c3ncc(C)o3)=Cc3ccc(-c4cnn(CC(C)(C)O)c4)cc32)cn1 [Compound 105, (8-(1-(2-Hydroxy-2-methylpropyl)-1H-pyrazol-4-yl)-4-(5-methyloxazol-2-yl)-2,3-dihydro-1H-benzo[b]azepin-1-yl)(6-methoxypyridin-3-yl)methanone] | 0.001 to 1 µM | 0.001 to 1 µM | 0.001 to 1 µM | 0.001 to 1 µM | – |
| COc1ccc(C(=O)N2CCC(c3ncc(C)o3)=Cc3ccc(-c4cnn(CC(C)(C)O)c4)cc32)cc1F [Compound 106, (3-Fluoro-4-methoxyphenyl)(8-(1-(2-hydroxy-2-methylpropyl)-1H-pyrazol-4-yl)-4-(5-methyloxazol-2-yl)-2,3-dihydro-1H-benzo[b]azepin-1-yl)methanone] | 0.001 to 1 µM | 0.001 to 1 µM | 0.001 to 1 µM | 0.001 to 1 µM | – |
| COc1ccc(CN2C(=O)CC(c3ncc(C)o3)=Cc3ccc(-c4cnn(C(C)(C)C(N)=O)c4)cc32)cc1F [Compound 107, 2-(4-(1-(3-fluoro-4-methoxybenzyl)-4-(5-methyloxazol-2-yl)-2-oxo-2,3-dihydro-1H-benzo[b]azepin-8-yl)-1H-pyrazol-1-yl)-2-methylpropanamide] | 0.001 to 1 µM | 0.001 to 1 µM | 0.001 to 1 µM | 0.001 to 1 µM | – |
